PubChem BioAssay (NCI)
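96-well plates; 48 h exposure; 5 concentrations. Endpoints by linear interpolation between flanking doses. Not reached: highest tested concentration assigned. GI50 = concentration required for 50% inhibition of growth. TGI denotes the concentration required for complete inhibition of growth.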

Assays:
Experiment in all cases: NCI anticancer screen, dose series, 48 h
HS 578T breast = test system: HS 578T breast
HT29 colon = test system: HT29 colon
SK-MEL-2 melanoma = test system: SK-MEL-2 melanoma
NCI-H460 lung = test system: NCI-H460 lung
U251 CNS = test system: U251 CNS
MDA-MB-435 = test system: MDA-MB-435
A549 NSCLC = test system: A549 NSCLC
MALME-3M melanoma = test system: MALME-3M melanoma

Structure (SMILES)	GI50 (HS 578T breast)	TGI (HS 578T breast)	GI50 (HT29 colon)	TGI (HT29 colon)	GI50 (SK-MEL-2 melanoma)	TGI (SK-MEL-2 melanoma)	GI50 (NCI-H460 lung)	TGI (NCI-H460 lung)	GI50 (U251 CNS)	TGI (U251 CNS)	GI50 (MDA-MB-435)	TGI (MDA-MB-435)	GI50 (A549 NSCLC)	TGI (A549 NSCLC)	GI50 (MALME-3M melanoma)	TGI (MALME-3M melanoma)
O=C(Nc1ncc(Cc2ccccc2)s1)c1ccc2c(c1)OCCO2	0.0353 µM	> 100 µM	0.0506 µM	> 22 µM	0.101 µM	> 100 µM	0.0375 µM	> 34.5 µM	0.0418 µM	> 100 µM	0.0187 µM	0.0436 µM	0.0616 µM	> 100 µM	0.042 µM	> 100 µM
O=C1OC(c2ccccc2)C2CC3CC4(CCC3CN12)OCCO4 (stereo not drawn)	–	–	–	> 100 µM	–	> 100 µM	–	> 100 µM	–	> 100 µM	–	–	–	> 100 µM	–	–
O=C(O)c1cc(N/C=C2\C(=O)c3ccccc3OC2O)ccc1O (stereo not drawn)	19.6 µg/mL	140 µg/mL	28.8 µg/mL	71.6 µg/mL	30.6 µg/mL	68.7 µg/mL	34 µg/mL	81.3 µg/mL	18 µg/mL	43.6 µg/mL	23.3 µg/mL	79.2 µg/mL	53.7 µg/mL	> 150 µg/mL	7.59 µg/mL	40.8 µg/mL
CN(C)CCCNC(=O)c1cc(NC(=O)CCNC(=O)c2ccc3c(c2)C(=O)c2ccccc2C3=O)cn1C	> 100 µM	> 100 µM	79.8 µM	> 100 µM	> 100 µM	> 100 µM	> 100 µM	> 100 µM	27.1 µM	> 100 µM	> 100 µM	> 100 µM	> 100 µM	> 100 µM	–	–
Cc1cc(Cl)ccc1NC(=O)/C(Cl)=C(/Cl)C(=O)O	–	61.6 µM	–	57.7 µM	–	–	–	> 100 µM	–	38.3 µM	–	45.9 µM	–	> 100 µM	–	–
O=S(=O)(O)c1ccc(Cl)cc1.[Cd]	47 µM	> 100 µM	> 100 µM	> 100 µM	19.2 µM	40.4 µM	4.61 µM	25.3 µM	34 µM	> 100 µM	20.5 µM	63 µM	> 100 µM	> 100 µM	–	–
O=C(CCc1nnc(-c2c(Cl)cccc2Cl)o1)c1nc2ccccc2[nH]1	9.71 µM	93.9 µM	3.77 µM	55.1 µM	–	–	4.99 µM	28.6 µM	10.9 µM	77.6 µM	2 µM	4.77 µM	10.4 µM	> 100 µM	13 µM	52.6 µM
CC1(C)Cc2cccc(OCC(O)CN3CCN(c4ccc(F)cc4)CC3)c2O1 (stereo not drawn)	10.4 µM	31.3 µM	7.87 µM	17.2 µM	27 µM	> 50 µM	15.3 µM	> 50 µM	12.8 µM	39.8 µM	10.5 µM	25.7 µM	19.4 µM	> 50 µM	–	–
O=C(c1ccccc1)c1ccc(Cl)c([N+](=O)[O-])c1	17.5 µM	95.3 µM	3.43 µM	11.1 µM	2.96 µM	6.89 µM	18.5 µM	39.3 µM	7.35 µM	20.3 µM	4.53 µM	17.1 µM	16.3 µM	40.5 µM	–	–
